Converted amounts (≈) assume the structure as drawn. Where two headings read alike, the source gives them in different places.
Legend:
[1] = in vitro; assay type: in vitro ADME; settings: human, plasma, pH 7.4
Description: Human plasma (BIOMEX GmbH) was mixed from more than 6 individuals and rat plasma was mixed from more than 10 rats. […] The samples were matched with opposite blank buffer to obtain a final volume of 100 µL with a volume ratio of the matrix: Dialysis Buffer (100 mM sodium phosphate and 150 mM NaCl, pH 7.4) (1:1) in each well. […] The plate was sealed and shaken at 800 rpm for 10 min. Then these T0 samples were stored at 4 °C pending further processing along with other post-dialysis samples. […] The plate was rotated at 100 rpm in a humidified incubator with 5% CO2 at 37 °C for 4 h. At the end of the dialysis, all samples were further processed by protein precipitation for LC-MS/MS analysis. The %bound was calculated using the following equations:%Unbound = 100 × F/T %Bound = 100 − %Unbound
F = Free compound concentration as determined by the calculated concentration on the buffer side of the membrane.
T = Total compound concentration as determined by the calculated concentration on the matrix side of the membrane.

[2] = in vitro; assay type: in vitro ADME; settings: microsomes
Description: Microsomes from humans and rats were purchased from Corning (Shanghai, China) and Xenotech (Kansas City, KS, USA), respectively. The working solution of liver microsomes was prepared in 100 mM phosphate buffer at 0.56 mg/mL. The quench solution was cold (4 °C) acetonitrile (ACN) containing 200 ng/mL Verapamil and 200 ng/mL Imipramine as internal standards (IS). An amount of 445 µL of the microsomal working solution was transferred into the pre-warmed plates T120 (incubate time: 120 min) and NCF 120 (no co-factor NADPH regenerating system), then the plates were incubated at 37 °C for 10 min with constant shaking. An amount of 54 µL of the liver microsomes was transferred into a blank plate, and 6 µL NADPH and 180 µL quenching solution were added to the blank plate. The microsomal working solution (0.56 mg/mL) and the compound working solution (100 µM) were mixed 3 times thoroughly and 54 µL was immediately removed for the 0 min point. Then 44 µL NADPH cofactor was added to the incubation plate, and shaken at 37 °C for 120 min. At 15, 30, 60, 90, and 120 min, a 60 µL sample was transferred to the quenching solution and centrifuged at 4000 rpm for 20 min at 4 °C [6]. Then, 80 µL supernatant was transferred to the HPLC water and shaken for 10 min before LC-MS/MS analysis.

[3] = in vitro; assay type: in vitro ADME; settings: hepatocytes
Description: Cryopreserved hepatocytes from male SD rats and humans were both purchased from Bioreclamation-IVT. The human cryopreserved hepatocytes were pooled from 10 human donors with a viability of 77.9% tested by trypan blue. The rats’ cryopreserved hepatocytes were pooled from 12 male SD (Sprague Dawley) rats, and the cell viability was 80.9%. The hepatocytes were diluted to 0.5 × 10^6/mL cell suspension with pre-warmed incubation medium ([…]). […] At 15, 30, 60, and 90 min, the samples were mixed and then 25 μL of each sample was transferred at each time point to a well containing 125 μL of ice-cold stop solution (acetonitrile containing 200 ng/mL tolbutamide and labetalol as internal standards) followed by mixing. The samples were vortexed on a plate shaker at 500 rpm for 10 min, and centrifuged at 3220× g for 20 min at 4 °C. The supernatants were transferred to ultra-pure water and analyzed by LC-MS/MS. […] CLint (hep) = k/million cells per mL CLint (liver) = CLint (hep) × liver weight (g/kg body weight) × hepatocellularity

[4] = system: S. aureus ATCC 29213 (MSSA); test: MIC determination; assay type: cell-based; settings: Staphylococcus aureus
[5] = system: S. aureus ATCC 700698 (MRSA); test: MIC determination; assay type: cell-based; settings: Staphylococcus aureus
[6] = system: S. aureus SAU-0167 (MRSA); test: MIC determination; assay type: cell-based; settings: Staphylococcus aureus
[7] = system: S. aureus SAU-9922 (MRSA); test: MIC determination; assay type: cell-based; settings: Staphylococcus aureus
[8] = system: S. epidermidis SEP-1024; test: MIC determination; assay type: cell-based; settings: Staphylococcus epidermidis, SEP1024
[9] = system: S. pneumoniae SPN-1169; test: MIC determination; assay type: cell-based; settings: Streptococcus pneumoniae, SPN1169
[10] = system: S. pyogenes SPY-0253; test: MIC determination; assay type: cell-based; settings: Streptococcus pyogenes, SPY0253
[11] = system: E. faecium EFA-0221 (VRE); test: MIC determination; assay type: cell-based; settings: Enterococcus faecium
[12] = system: E. faecalis EFA-1299; test: MIC determination; assay type: cell-based; settings: Enterococcus faecalis, EFA1299
[13] = system: E. faecalis ATCC 29212; test: MIC determination; assay type: cell-based; settings: Enterococcus faecalis, ATCC29212
[14] = system: H. influenzae ATCC 49247; test: MIC determination; assay type: cell-based; settings: Haemophilus influenzae, ATCC49247
[15] = system: A. baumannii ATCC 17978; test: MIC determination; assay type: cell-based; settings: Acinetobacter baumannii, ATCC17978
[16] = system: A. baumannii ATCC BAA-1605; test: MIC determination; assay type: cell-based; settings: Acinetobacter baumannii, ATCCBAA1605
[17] = system: K. pneumoniae ATCC BAA-1705; test: MIC determination; assay type: cell-based; settings: Klebsiella pneumoniae, ATCCBAA1705
[18] = system: P. aeruginosa ATCC 27853; test: MIC determination; assay type: cell-based; settings: Pseudomonas aeruginosa, ATCC27853
[19] = system: E. coli ATCC 25922; test: MIC determination; assay type: cell-based; settings: Escherichia coli, ATCC25922
[20] = system: S. maltophilia STM-0001; test: MIC determination; assay type: cell-based; settings: Stenotrophomonas maltophilia, STM0001
[21] = system: M. tuberculosis H37Rv ATCC27294; test: MIC determination (Microplate Alamar Blue Assay); assay type: cell-based, Mycobacterium tuberculosis; settings: M. tuberculosis H37Rv ATCC27294, 7 days
[22] = system: M. bovis BCG (Pasteur 1173P2); test: microbe, parasite or virus in culture; assay type: cell-based; settings: Mycobacterium tuberculosis variant bovis BCG, 168 h
[23] = system: M. smegmatis mc^2155; test: MIC determination (Microplate Alamar Blue Assay); assay type: cell-based; settings: Mycolicibacterium smegmatis; M. smegmatis mc^2155, 72 h
[24] = system: M. abscessus-GDI; test: MIC determination (Microplate Alamar Blue Assay); assay type: cell-based, Mycobacterium abscessus; settings: Mycobacteroides abscessus, 72 h
[25] = system: M. abscessus-C16; test: MIC determination (Microplate Alamar Blue Assay); assay type: cell-based, Mycobacterium abscessus; settings: Mycobacteroides abscessus; M. abscessus-C16, 72 h
[26] = system: M. abscessus-C28; test: MIC determination (Microplate Alamar Blue Assay); assay type: cell-based, Mycobacterium abscessus; settings: Mycobacteroides abscessus, 72 h
[27] = system: M. abscessus-C58; test: MIC determination (Microplate Alamar Blue Assay); assay type: cell-based, Mycobacterium abscessus; settings: Mycobacteroides abscessus; M. abscessus-C58, 72 h
[28] = human
[29] = male, Sprague-Dawley, rat, in vivo, iv, 3 mg/kg
[30] = allometric scaling from rat volume of distribution
[31] = system: Wolbachia-infected LDW1 cells (wMel); settings: cited from earlier work
[32] = system: Wolbachia-infected C6/36 cells (wAlb); settings: cited from earlier work
[33] = in vivo; settings: male, Sprague-Dawley, rat
[34] = physchem
[35] = in vitro; settings: African green monkey
[36] = system: MDR1-MDCK; settings: cited from earlier work
[37] = Pharmacokinetics in rats; settings: Rat

C=C[C@]1(C)C[C@@H](OC(=O)COc2ccc3c(c2F)B(O)OC3)[C@]2(C)[C@H](C)CC[C@]3(CCC(=O)[C@H]32)[C@@H](C)[C@@H]1O [AN11251]
fraction unbound at 4 h, 2 µM [1]: 0.024
CLint scaled ([2]; human): 300 mL/min/kg
CLint scaled ([2]; rat): 333 mL/min/kg
CLint scaled at 20 µg/mL ([3]; human): 180 mL/min/kg
hepatocyte CLint at 20 µg/mL ([3]; human): 64.8 µL/min/1e6 cells
CLint scaled at 20 µg/mL ([3]; male, Sprague-Dawley, rat): 876 mL/min/kg
MIC [4]: < 0.039 µg/mL
MIC [5]: < 0.039 µg/mL
MIC [6]: 0.063 µg/mL (≈ 0.119 µM)
MIC [7]: 0.063 µg/mL (≈ 0.119 µM)
MIC [8]: 0.063 µg/mL (≈ 0.119 µM)
MIC [9]: 0.5 µg/mL (≈ 0.946 µM)
MIC [10]: 0.063 µg/mL (≈ 0.119 µM)
MIC [11]: 0.125 µg/mL (≈ 0.237 µM)
MIC [12]: 4 µg/mL (≈ 7.57 µM)
MIC [13]: 5 µg/mL (≈ 9.46 µM)
MIC [14]: 2 µg/mL (≈ 3.78 µM)
MIC [15]: 20 µg/mL (≈ 37.8 µM)
MIC [16]: 32 µg/mL (≈ 60.6 µM)
MIC [17]: > 32 µg/mL
MIC [18]: > 32 µg/mL
MIC [19]: > 32 µg/mL
MIC [20]: > 32 µg/mL
MIC [21]: 0.952 µg/mL (≈ 1.8 µM)
MIC ([21]; Mycobacterium tuberculosis, 168 h, read-out: MIC): 0.925 µg/mL (≈ 1.75 µM)
MIC [22]: 2.5 µg/mL (≈ 4.73 µM)
MIC [23]: > 20 µg/mL
MIC [24]: > 20 µg/mL
MIC [25]: > 20 µg/mL
MIC [26]: > 20 µg/mL
MIC [27]: > 20 µg/mL
half-life [28]: 252 min
MRT [29]: 1.04 h
predicted human volume of distribution [30]: 1.029 L/kg
EC50 [31]: 0.792 ng/mL (≈ 0.0015 µM)
EC50 [32]: 7.92 ng/mL (≈ 0.015 µM)
bioavailability [33]: 19.2%
Tmax ([33]; iv, 3 mg/kg): 0 h
Vd ([33]; iv, 3 mg/kg): 1.44 L/kg
clearance ([33]; iv, 3 mg/kg): 19.8 mL/min/kg
half-life ([33]; iv, 3 mg/kg): 105 min
MRT ([33]; iv, 3 mg/kg): 1.22 h
half-life ([33]; po, 10 mg/kg): 143 min
MRT ([33]; po, 10 mg/kg): 2.26 h
logP [34]: 4.5
CC50 [35]: 27 µg/mL (≈ 51.1 µM)
apparent permeability (Papp) [36]: 1.41e-05 cm/s
time until eliminated (plasma concentration-time curve) [37]: ≤ 8 h

O=C(O)c1cn(C2CC2)c2cc(N3CCNCC3)c(F)cc2c1=O [Ciproflox, Ciprofloxacin]
MIC [6]: > 32 µg/mL
MIC [7]: > 32 µg/mL
MIC [8]: 0.25 µg/mL (≈ 0.754 µM)
MIC [9]: 1 µg/mL (≈ 3.02 µM)
MIC [10]: 0.25 µg/mL (≈ 0.754 µM)
MIC [11]: > 32 µg/mL
MIC [12]: 0.25 µg/mL (≈ 0.754 µM)
MIC [14]: ≤ 0.031 µg/mL
MIC [16]: > 32 µg/mL
MIC [20]: 2 µg/mL (≈ 6.04 µM)
